Measured values reported in patent US10919893B2, “Process for the preparation of crystalline form C of avibactam sodium” (Sandoz AG, priority 2017, dated 2021).
Counter-ions that a name gives are not always drawn.

Experiments:
[1] = solid-state stability of avibactam forms against moisture, temperature stress and storage; type: physicochemical
[2] = cited from earlier work
bacteria = settings: at clinically relevant doses; cited from earlier work

In the case of NC(=O)[C@@H]1CC[C@@H]2CN1C(=O)N2OS(=O)(=O)O [form A, avibactam sodium], the “behaviour upon further temperature stress” value [1] is reported as “dehydrates to the anhydrous form B”.

For NC(=O)[C@@H]1CC[C@@H]2CN1C(=O)N2OS(=O)(=O)O [form C, avibactam sodium], the “polymorphic stability (conversion to other crystalline forms)” value ([2]; ambient conditions and conditions of manufacturing of solid pharmaceutical dosage forms) is given as “does not convert to other crystalline forms”.

For NC(=O)[C@@H]1CC[C@@H]2CN1C(=O)N2OS(=O)(=O)O [Avibactam, [(2S,5R)-2-carbamoyl-7-oxo-1,6-diazabicylco[3.2.1]octan-6-yl] hydrogen sulfate], the “antibacterial activity in itself” value (bacteria) is given as “no antibacterial activity”.

In the case of NC(=O)[C@@H]1CC[C@@H]2CN1C(=O)N2OS(=O)(=O)O [form E, avibactam sodium], the “temperature above which the form dehydrates to monohydrate form A” value [1] is listed as “above 60 °C”, the “relative humidity above which the form is particularly stable” value ([2]; per WO 2011/042560 A1) is listed as over 70% and the “stability during long storage and at higher temperature” value ([2]; per WO 2011/042560 A1) is listed as “tends to lose water and to hydrolyze”.
